Entries after “also recorded” stand apart in the source; their conditions may differ.
Key:
VSMCs [1] = test: Oxidative stress in VSMCs (DCFDA fluorescence); assay type: cell-based; details: 10 μM, fluorescence measured for 6 hours
Experimental: (§1) It is known that the level of reactive oxygen species in cells can be measured by measuring the conversion of 2′,7′—dichlorofluorescein diacetate (DCFDA) to the fluorescent dye 2′,7′-dichlorofluorescein (DCF). The fluorescence generated by cells subjected to DCFDA is directly proportional to the amount of oxidized DCFDA to DCF.
To perform the study, VSMCs (10,000 cells/well) were plated in a 96-well plate and left to adhere overnight. Next, cells were incubated for 1 hour with 20 μM DCFDA. The medium was then changed to medium supplemented with 10 μM vitamin K2 (MK-7). To visualize intracellular oxidative stress, fluorescence was measured for 6 hours and fluorescence intensity was normalized for cell count.

VSMCs [2] = test: Warfarin-induced oxidative stress in VSMCs, effect of vitamin K2 (DCFDA); assay type: cell-based; details: 5 hours incubation
Experimental: as §1
This study was performed to determine if vitamin K2 (MK-7) reduces warfarin-induced oxidative stress. To perform the study, VSMCs (10,000 cells/well) were plated in a 96-well plate and left to adhere overnight. Next, cells were incubated for 24 hours with 100 μM warfarin. The next day, […] DCFDA was added to the cells for 1 hour. The cells were then incubated for 5 hours with normal medium (baseline), vitamin K2 (MK-7), or warfarin. Fluorescence was measured and fluorescence intensity was normalized for cell count.

[3] = tested on: human vascular smooth muscle cells (hVSMCs); test: Vitamin K2 (MK-7) and ATP pathway: ATP luminescence with warfarin; assay type: cell-based; details: warfarin 50 μM with vitamin K2 (MK-7) 10 μM, 24 hours
Experimental: This study was performed in order to determine the effect of vitamin K2 (MK-7) on warfarin-induced oxidative stress in muscles. To perform this study, human vascular smooth muscle cells (hVSMCs; 5,000 cells/well) were plated in 96-well dark plates and left to adhere overnight. Next, cells were incubated for 24 hours with either vehicle only (as blank control), warfarin (10 or 50 μM), vitamin K2 (MK-7) (10 μM), or a combination of warfarin (50 μM) and vitamin K2 (MK-7) (10 μM). Hoechst was added to correct for cell number (1 μg/mL). Next, ATP was measured using mammalian lysis buffer for 5 minutes after which 50 μL ATP substrate solution was added to the wells and incubated for 10 minutes in a dark environment. Finally, medium was transferred to a white plate to measure luminescence.

VSMCs [4] = test: Vitamin K2 (MK-7) and hypoxia: ATP on co-treatment with CoCl2; assay type: cell-based; details: co-treatment CoCl2 100 μM and 10 μM, 24 hours
Experimental: This study was performed to investigate whether vitamin K2 (MK-7) can prevent the hypoxia-induced decrease in ATP (CoCl2 treatment, thereby stabilization of HIF1a). To perform this study, VSMCs were co-treated with CoCl2 and vitamin K2 (MK-7).
First, VSCMs (5000 cells/well) were plated in 96-well plates and left to adhere overnight. Next, cells were incubated for 24 hours with either CoCl2 (100 μM) or CoCl2 and vitamin K2 (MK-7) or UQ10 together (100 and 10 μM, respectively). Next, ATP was measured and corrected for cell numbers. CoCl2 values were set as relative to CoCl2 co-treated with vitamin K2 (MK-7) or UQ10. Hoechst was added to correct for cell number (1 μg/mL). Next, ATP was measured using mammalian lysis buffer for 5 minutes after which 50 μL ATP substrate solution was added to the wells and incubated for 10 minutes in a dark environment. Finally, medium was transferred to a white plate to measure luminescence.

[5] = tested on: transgenic Ren-2 rats [TGR(mREN-2)27]; test: T-TAS thrombus formation in whole blood of treated TGR (Ren-2) rats; assay type: in vivo, rat; details: vitamin K2 (MK-7) added
Experimental: This experiment was conducted in order to evaluate the effects of vitamin K2 (MK-7) on the anticoagulant activity of the new oral anticoagulants (NOAC) rivaroxaban and dabigatran using the T-TAS Total Thrombus-formation Analysis System. The T-TAS Total Thrombus-formation Analysis System is a microchip-based flow chamber system capable of evaluating whole-blood thrombogenicity. It is a useful tool in monitoring the efficacy of anticoagulants on thrombus formation and predicting the risk of bleeding complications. […] Four days before the start of the treatment, the first part of animals' body weight and food intake was measured in selected representative three cages (rats n=9) to calculate the appropriate amount of tested compounds required for addition to the diet to obtain the dosing indicated in Table 1. […] The body mass of the rats was measured at the beginning and at the end of treatment. At the beginning and at the end of treatment, the food intake per day was measured in representative group of animals to monitor the daily dosing of tested compounds (per kg of body mass). The thrombus formation in vitro was measured in whole blood using a microchip-based flow chamber system according to manufacturers' protocol (Total Thrombus-formation Analyser System, T-TAS; Fujimori Kogyo Co., Ltd., Tokyo, Japan). […]

SMILES: CC(C)=CCC/C(C)=C/CC/C(C)=C/CC/C(C)=C/CC/C(C)=C/CC/C(C)=C/CC/C(C)=C/CC1=C(C)C(=O)c2ccccc2C1=O [vitamin K2 (MK-7)]
- oxidative stress in VSMCs (DCF fluorescence) (VSMCs [1]): clearly reduced the oxidative stress
- warfarin-induced oxidative stress in VSMCs (VSMCs [2]; after 24 hours 100 μM warfarin): counteracted the warfarin-induced oxidative stress; also recorded: counteracts intracellular oxidative stress
- normal oxidative stress in VSMCs (VSMCs [2]; normal conditions): reduced not only normal oxidative stress; also recorded: counteracts intracellular oxidative stress
- oxidative stress induced by warfarin [3]: counteracted the oxidative stress induced by warfarin
- prevention of hypoxia-induced (CoCl2) decrease in ATP generation (VSMCs [4]): could (partially) prevent the decreased ATP generation
- modification of the thrombus formation inhibition by dabigatran and rivaroxaban [5]: did not modify this effect significantly

Reference: patent US20220160652A1, “USE OF VITAMIN K IN COMBINATION WITH ANTICOAGULANTS” (KAYDENCE PHARMA AS, priority 2019, published 2022)
